# Experimental data published in ChEMBL document CHEMBL3885881, “DrugMatrix”.
# Species: Rattus norvegicus
# Assay: DrugMatrix - Regimen: Daily Repeat
# Assay type: toxicity, organism-based, Sprague-Dawley
# Parameters: regimen Daily Repeat, gender Male, age 6-8 weeks
# Conditions: in vivo, po, 12 mg/kg, route oral GAVAGE, dose level Low, vehicle .5 % CMC; for ABSOLUTE BASOPHIL / ABSOLUTE EOSINOPHIL / ABSOLUTE LYMPHOCYTE / ABSOLUTE MONOCYTE / ABSOLUTE SEGMENTED NEUTROPHIL / BASOPHIL / EOSINOPHIL / ERYTHROCYTE COUNT / HEMATOCRIT / HEMOGLOBIN / LEUKOCYTE COUNT / LYMPHOCYTE / MEAN CORPUSCULAR HEMOGLOBIN / MEAN CORPUSCULAR HEMOGLOBIN CONCENTRATION / MEAN CORPUSCULAR VOLUME / MONOCYTE / NEUTROPHIL / NUCLEATED RED BLOOD CELLS / PLATELET COUNT: tissue Blood; for ALANINE AMINOTRANSFERASE / ALBUMIN / ALKALINE PHOSPHATASE / ASPARTATE AMINOTRANSFERASE / BLOOD UREA NITROGEN / CARBON DIOXIDE / CHLORIDE / CHOLESTEROL / CREATINE PHOSPHOKINASE / CREATININE / GLUCOSE / LACTATE DEHYDROGENASE / LIPASE / PHOSPHORUS / POTASSIUM / SODIUM / TOTAL BILIRUBIN / TOTAL PROTEIN / URIC ACID: tissue Plasma
smiles,measurement,setting,value
CC(=O)O[C@]1(C(C)=O)CC[C@H]2[C@@H]3C=C(C)C4=CC(=O)CC[C@]4(C)[C@H]3CC[C@@]21C [MEGESTROL ACETATE],ABSOLUTE BASOPHIL,"72 h, time 3 day",0 CELLS/uL
same,ABSOLUTE EOSINOPHIL,"72 h, time 3 day",84.67 CELLS/uL
same,ABSOLUTE LYMPHOCYTE,"72 h, time 3 day",11039.33 CELLS/uL
same,ABSOLUTE MONOCYTE,"72 h, time 3 day",40 CELLS/uL
same,ABSOLUTE SEGMENTED NEUTROPHIL,"72 h, time 3 day",1136 CELLS/uL
same,BASOPHIL,"72 h, time 3 day",0%
same,EOSINOPHIL,"72 h, time 3 day",0.67%
same,ERYTHROCYTE COUNT,"72 h, time 3 day",5.83 x10E6/uL
same,HEMATOCRIT,"72 h, time 3 day",37.03%
same,HEMOGLOBIN,"72 h, time 3 day",13.83 G/DL
same,LEUKOCYTE COUNT,"72 h, time 3 day",12.3 x10E3/uL
same,LYMPHOCYTE,"72 h, time 3 day",89.67%
same,MEAN CORPUSCULAR HEMOGLOBIN,"72 h, time 3 day",23.77 pg
same,MEAN CORPUSCULAR HEMOGLOBIN CONCENTRATION,"72 h, time 3 day",37.37 G/DL
same,MEAN CORPUSCULAR VOLUME,"72 h, time 3 day",63.5 fL
same,MONOCYTE,"72 h, time 3 day",0.33%
same,NEUTROPHIL,"72 h, time 3 day",9.33%
same,NUCLEATED RED BLOOD CELLS,"72 h, time 3 day",0 /100WBC
same,PLATELET COUNT,"72 h, time 3 day",1299.33 x10E3/uL
same,ALANINE AMINOTRANSFERASE,"72 h, time 3 day",52 u/L
same,ALBUMIN,"72 h, time 3 day",4.43 G/DL
same,ALKALINE PHOSPHATASE,"72 h, time 3 day",394.33 u/L
same,ASPARTATE AMINOTRANSFERASE,"72 h, time 3 day",80.67 u/L
same,BLOOD UREA NITROGEN,"72 h, time 3 day",16.33 mg/dL
same,CARBON DIOXIDE,"72 h, time 3 day",25.33 mmol/L
same,CHLORIDE,"72 h, time 3 day",103.67 MEQ/L
same,CHOLESTEROL,"72 h, time 3 day",66.33 mg/dL
same,CREATINE PHOSPHOKINASE,"72 h, time 3 day",195 u/L
same,CREATININE,"72 h, time 3 day",0.25 mg/dL
same,GLUCOSE,"72 h, time 3 day",179.67 mg/dL
same,LACTATE DEHYDROGENASE,"72 h, time 3 day",177.33 u/L
same,LIPASE,"72 h, time 3 day",8 u/L
same,PHOSPHORUS,"72 h, time 3 day",13.6 mg/dL
same,POTASSIUM,"72 h, time 3 day",6.09 MEQ/L
same,SODIUM,"72 h, time 3 day",146.33 MEQ/L
same,TOTAL BILIRUBIN,"72 h, time 3 day",0.27 mg/dL
same,TOTAL PROTEIN,"72 h, time 3 day",6.43 G/DL
same,URIC ACID,"72 h, time 3 day",1.73 mg/dL
same,ABSOLUTE BASOPHIL,"120 h, time 5 day",0 CELLS/uL
same,ABSOLUTE EOSINOPHIL,"120 h, time 5 day",115.33 CELLS/uL
same,ABSOLUTE LYMPHOCYTE,"120 h, time 5 day",7823.33 CELLS/uL
same,ABSOLUTE MONOCYTE,"120 h, time 5 day",0 CELLS/uL
same,ABSOLUTE SEGMENTED NEUTROPHIL,"120 h, time 5 day",461.33 CELLS/uL
same,BASOPHIL,"120 h, time 5 day",0%
same,EOSINOPHIL,"120 h, time 5 day",1.33%
same,ERYTHROCYTE COUNT,"120 h, time 5 day",5.55 x10E6/uL
same,HEMATOCRIT,"120 h, time 5 day",36.1%
same,HEMOGLOBIN,"120 h, time 5 day",13.53 G/DL
same,LEUKOCYTE COUNT,"120 h, time 5 day",8.4 x10E3/uL
same,LYMPHOCYTE,"120 h, time 5 day",93.33%
same,MEAN CORPUSCULAR HEMOGLOBIN,"120 h, time 5 day",24.37 pg
same,MEAN CORPUSCULAR HEMOGLOBIN CONCENTRATION,"120 h, time 5 day",37.53 G/DL
same,MEAN CORPUSCULAR VOLUME,"120 h, time 5 day",65.03 fL
same,MONOCYTE,"120 h, time 5 day",0%
same,NEUTROPHIL,"120 h, time 5 day",5.33%
same,NUCLEATED RED BLOOD CELLS,"120 h, time 5 day",0 /100WBC
same,PLATELET COUNT,"120 h, time 5 day",1160 x10E3/uL
same,ALANINE AMINOTRANSFERASE,"120 h, time 5 day",48.33 u/L
same,ALBUMIN,"120 h, time 5 day",4.4 G/DL
same,ALKALINE PHOSPHATASE,"120 h, time 5 day",429.67 u/L
same,ASPARTATE AMINOTRANSFERASE,"120 h, time 5 day",75.33 u/L
same,BLOOD UREA NITROGEN,"120 h, time 5 day",15 mg/dL
same,CARBON DIOXIDE,"120 h, time 5 day",27.33 mmol/L
same,CHLORIDE,"120 h, time 5 day",102.33 MEQ/L
same,CHOLESTEROL,"120 h, time 5 day",63.33 mg/dL
same,CREATINE PHOSPHOKINASE,"120 h, time 5 day",205 u/L
same,CREATININE,"120 h, time 5 day",0.16 mg/dL
same,GLUCOSE,"120 h, time 5 day",151.67 mg/dL
same,LACTATE DEHYDROGENASE,"120 h, time 5 day",111.33 u/L
same,LIPASE,"120 h, time 5 day",8.33 u/L
same,PHOSPHORUS,"120 h, time 5 day",12.33 mg/dL
same,POTASSIUM,"120 h, time 5 day",5.99 MEQ/L
same,SODIUM,"120 h, time 5 day",148.33 MEQ/L
same,TOTAL BILIRUBIN,"120 h, time 5 day",0.3 mg/dL
same,TOTAL PROTEIN,"120 h, time 5 day",6.2 G/DL
same,URIC ACID,"120 h, time 5 day",0.93 mg/dL
